Laboratory results taken from patent US20100075907A1, “NEUROMEDIN U RECEPTOR AGONISTS AND USES THEREOF” (priority 2006, published 2010).
Starred links: 1 amine or outer side, 2 acyl side, 3 side chain; linkers in the order of their positions; H or OH if unused. Non-standard residues stand in square brackets, D forms with d. Residues, ends and D or L forms follow the SMILES beside them. *: point of attachment. X2 = CCN1C(=O)CC(SC[C@H](NC(C)=O)C(=O)NCCCOCCOCCOCCCN*)C1=O; Succinimide(1-Et,3-yl) = CCN1C(=O)CC(*)C1=O; Palmitoyl = CCCCCCCCCCCCCCCC(=O)*; Suc = O=C(CCC(=O)[*:2])[*:1]

Tests used:
rat NMUR2 = rat NMUR2 (Rattus norvegicus, UniProt Q9ESQ4); test: FLIPR calcium mobilization assay, rat NMUR2; assay type: cell-based; parameters: expressed in transfected cells; host or cells: FLP-In CHO or HEK-293 FLP-In cells (pcDNA5); details: for IC50: functional data, rat R2; for EC50: FLIPR
Chain of rat NMUR2 (Q9ESQ4 whole entry): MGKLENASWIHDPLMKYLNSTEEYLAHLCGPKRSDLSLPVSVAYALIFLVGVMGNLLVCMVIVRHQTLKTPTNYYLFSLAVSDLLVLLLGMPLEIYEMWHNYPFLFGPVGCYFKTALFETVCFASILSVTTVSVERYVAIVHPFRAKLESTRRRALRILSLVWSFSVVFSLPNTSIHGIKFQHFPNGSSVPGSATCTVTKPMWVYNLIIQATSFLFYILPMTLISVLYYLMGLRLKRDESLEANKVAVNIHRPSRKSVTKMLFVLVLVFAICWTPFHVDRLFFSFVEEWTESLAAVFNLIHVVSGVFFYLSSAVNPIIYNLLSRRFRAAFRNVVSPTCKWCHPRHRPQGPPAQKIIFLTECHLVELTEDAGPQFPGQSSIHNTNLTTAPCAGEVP
Excerpt: (§1) Human, mouse or rat cDNAs encoding NMUR1 or NMUR2 (as described in Howard et al. Nature 406: 70-74 (2000) were subcloned in pcDNA5 (Invitrogen) and transfected into FLP-In CHO cells and HEK-293 FLP-In cells purchased from Invitrogen (Carlsbad, Calif.) using lipofectamine (Invitrogen). The Flp-In system allows integration and expression of a particular gene of interest at a specific genomic location utilizing the Flp recombinase from yeast. The transfected cells were selected by growth in medium containing 200 μg/mL hygromycin (Invitrogen). Populations were frozen at early passage numbers, and these stocks were used for further studies. Stable clones that expressed the mRNAs were identified functionally by FLIPR as well as by RT-PCR. […] Two different rodent NMUR1 cell lines were thus generated: one with the codon as predicted from the genomic databases and another cell line with an engineered methionine (ATG) as the start codon. Additionally, stable cell lines expressing the human receptors were generated in HEK-293/aeq17 cells which stably express the aequorin gene under the CMV promoter. The human NMUR2 cDNA was cloned into pcDNA3.1 and human NMUR1 was subcloned into pIRES-puro (Clontech, Mountain View, Calif.), after transfection cells were selected in media containing G418 and either hygromycin (NMUR2) or puromycin (NMUR1).
(§2) The NMU receptors signal primarily through Gαq/11 proteins; therefore calcium mobilization assays can be utilized for functional activity.
(§3) Stable cell lines expressing human and or rodent NMUR1 or human NMUR2 receptors were plated at a density of 12,000 cells per well overnight on poly-lysine coated 384-well black-walled plates. The following day, the media was removed from the plates and the cells were subsequently loaded with Fluo-3 (Molecular Probes), a calcium sensitive dye, diluted in FLIPR buffer (1× Hank's buffered saline containing 20 mM HEPES, 0.1% BSA, 2.5 mM probenecid (Sigma) and 1.6 mM TR40). All reagents are from Invitrogen unless otherwise noted. Peptide stocks were resuspended in DMSO at a stock concentration of 2 mM and diluted in FLIPR buffer on the day of the experiment to a 4 μM working stock solution.
(§4) After a 90 minute incubation at room-temperature, cell plates were loaded onto a FLIPR (Molecular Devices) to monitor cellular fluorescence (excitation=488 nm; emission=540 nm) before and after compound/peptide addition. Eight to twelve point dose responses were tested on NMUR-expressing cell lines using FLIPR with 1 μM peptide as the highest dose. The response after peptide addition was taken as the maximum fluorescence units minus the fluorescence immediately prior to stimulation for each well. EC50 values were calculated using GraphPad Prism (San Diego, Calif.) software.
In vitro responses of Neuromedin U receptor agonists (NMU1 to NMU25) in the FLIPR assay for human (Table 3), mouse (Table 4) and rat (Table 5) NMUR1 and NMUR2. EC50s are reported in nM values. Percent activity refers to the maximum response at 1 μM compared to the hNMU-25 response at the same concentration. NT=not tested.

hNMUR1 = target: T1, hNMUR1 (Homo sapiens, UniProt Q9HB89); test: In vitro functional assay, HEK-hR1 cells; assay type: cell-based; parameters: expressed in transfected cells; host or cells: FLP-In CHO or HEK-293 FLP-In cells (pcDNA5); HEK-293/aeq17 lines (pIRES-puro) were also made
T1 sequence (Q9HB89 1-426): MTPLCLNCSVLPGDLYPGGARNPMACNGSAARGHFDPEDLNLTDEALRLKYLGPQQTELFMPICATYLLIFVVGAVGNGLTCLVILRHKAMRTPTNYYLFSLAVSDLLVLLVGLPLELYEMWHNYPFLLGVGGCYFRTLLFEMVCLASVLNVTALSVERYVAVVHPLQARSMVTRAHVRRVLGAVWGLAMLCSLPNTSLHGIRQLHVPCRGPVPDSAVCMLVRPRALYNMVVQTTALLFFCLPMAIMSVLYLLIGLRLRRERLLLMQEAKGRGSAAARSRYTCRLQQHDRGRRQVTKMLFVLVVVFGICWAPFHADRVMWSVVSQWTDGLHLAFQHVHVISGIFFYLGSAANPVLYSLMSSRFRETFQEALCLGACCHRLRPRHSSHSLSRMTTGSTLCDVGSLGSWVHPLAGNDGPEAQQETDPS
Excerpt: as §1, §2, §3, §4
In addition to FLIPR, NMU receptor function can also be evaluated using an aequorin assay. Stable cell lines expressing the aequorin jelly fish gene can be used to report the activation of GPCRs by monitoring intracellular calcium mobilization. The objective is to identify compounds which specifically stimulate aequorin bioluminescence. Calcium-dependent luminescence is generated by the treatment of cells with the coelenterate luciferin, coelenterazine. Briefly, confluent monolayers of HEK-293/aeq 17 cells expressing hNMUR1 or hNMUR2 are “charged” with coelenterazine (Molecular Probes, Carlsbad, Calif.). Confluent T75 flasks are rinsed with media containing 300 μM glutathione and 0.1% FBS. Cells are incubated at 37° C. for one hour in 8 mL media, 0.1% FBS, 300 μM glutathione, and 20 μM coelenterazine. T75 flasks are subsequently rinsed with 6 mL ECB buffer (140 mM NaCl, 20 mM KCl, 20 mM HEPES, 5 mM glucose, 1 mM MgCl, 1 mM CaCl2, 0.1 mg/mL BSA, PH 7.3-7.4). Cells are removed from the flask in ECB buffer, pelleted, and resuspended at a density of 2×10^5 cells/mL. Agonists are added to the cells and activity is determined using a luminometer. […]

[1] = functional, rat R2, relative to native hNMU responses
[2] = maximum response at 1 μM compared to hNMU-25, rat NMUR2

Row | % Activity (rat NMUR2; [2]) [%] | EC50 (rat NMUR2; rat NMUR2) [nM] | Compound | IC50 (rat NMUR2) [nM] | further results
1 |  |  | CC(C)C[C@@H](NC(=O)[C@H](Cc1ccccc1)NC(=O)[C@H](Cc1ccc(O)cc1)NC(=O)CNC(=O)[C@H](CCCNC(=N)N)NC(=O)[C@H](CO)NC(=O)[C@H](CCC(N)=O)NC(=O)[C@H](CO)NC(=O)[C@H](C)NC(=O)[C@H](Cc1ccccc1)NC(=O)[C@@H]1CCCN1C(=O)[C@H](CO)NC(=O)[C@H](CCC(N)=O)NC(=O)[C@H](Cc1ccccc1)NC(=O)[C@H](CCC(=O)O)NC(=O)[C@H](CCC(=O)O)NC(=O)[C@H](CC(=O)O)NC(=O)[C@@H](NC(=O)[C@H](CCCNC(=N)N)NC(=O)[C@@H](N)Cc1ccccc1)C(C)C)C(=O)N[C@@H](Cc1c[nH]c2ccccc12)C(=O)N[C@@H](CCCNC(=N)N)C(=O)N1CCC[C@H]1C(=O)N[C@@H](CCCNC(=N)N)C(=O)N[C@@H](CC(N)=O)C(N)=O [Agonist H] (H-FRVDEEFQSPFASQSRGYF[dL]WRPRN-NH2; N-terminus assumed) | > 1000 | % Activity (rat NMUR2; [1]): 42%; % Activity (hNMUR1; Table 8, HEK-hR1, functional): 88%; IC50 (hNMUR1; Table 8, HEK-hR1, functional): 19 nM
2 | 52.2 |  | CCCCCCCCCCCCCCCC(=O)N[C@@H](CSC1CC(=O)N(CC)C1=O)C(=O)N[C@@H](Cc1ccccc1)C(=O)N[C@@H](CCCNC(=N)N)C(=O)N[C@H](C(=O)N[C@@H](CC(=O)O)C(=O)N[C@@H](CCC(=O)O)C(=O)N[C@@H](CCC(=O)O)C(=O)N[C@@H](Cc1ccccc1)C(=O)N[C@@H](CCC(N)=O)C(=O)N[C@@H](CO)C(=O)N1CCC[C@H]1C(=O)N[C@@H](Cc1ccccc1)C(=O)N[C@@H](C)C(=O)N[C@@H](CO)C(=O)N[C@@H](CCC(N)=O)C(=O)N[C@@H](CO)C(=O)N[C@@H](CCCNC(=N)N)C(=O)NCC(=O)N[C@@H](Cc1ccc(O)cc1)C(=O)N[C@@H](Cc1ccccc1)C(=O)N[C@@H](CC(C)C)C(=O)N[C@@H](Cc1ccccc1)C(=O)N[C@@H](CCCNC(=N)N)C(=O)N1CCC[C@H]1C(=O)N[C@@H](CCCNC(=N)N)C(=O)N[C@@H](CC(N)=O)C(N)=O)C(C)C (stereo partly shown) [NMU24] (Palmitoyl-C(Succinimide(1-Et,3-yl))FRVDEEFQSPFASQSRGYFLFRPRN-NH2) |  | 
3 | 100 |  | CCN1C(=O)CC(SC[C@H](NC(C)=O)C(=O)N[C@@H](C)C(=O)N[C@@H](CO)C(=O)N[C@@H](CCC(N)=O)C(=O)N[C@@H](CO)C(=O)N[C@@H](CCCNC(=N)N)C(=O)NCC(=O)N[C@@H](Cc2ccc(O)cc2)C(=O)N[C@@H](Cc2ccccc2)C(=O)N[C@@H](CC(C)C)C(=O)N[C@@H](Cc2ccccc2)C(=O)N[C@@H](CCCNC(=N)N)C(=O)N2CCC[C@H]2C(=O)N[C@@H](CCCNC(=N)N)C(=O)N[C@@H](CC(N)=O)C(N)=O)C1=O (stereo partly shown) [NMU17] (Ac-C(Succinimide(1-Et,3-yl))ASQSRGYFLFRPRN-NH2) |  | 
4 | 100 |  | CCN1C(=O)CC(SC[C@H](NC(C)=O)C(=O)N[C@@H](Cc2ccccc2)C(=O)N[C@@H](CCC(N)=O)C(=O)N[C@@H](CO)C(=O)N2CCC[C@H]2C(=O)N[C@@H](Cc2ccccc2)C(=O)N[C@@H](C)C(=O)N[C@@H](CO)C(=O)N[C@@H](CCC(N)=O)C(=O)N[C@@H](CO)C(=O)N[C@@H](CCCNC(=N)N)C(=O)NCC(=O)N[C@@H](Cc2ccc(O)cc2)C(=O)N[C@@H](Cc2ccccc2)C(=O)N[C@@H](CC(C)C)C(=O)N[C@@H](Cc2ccccc2)C(=O)N[C@@H](CCCNC(=N)N)C(=O)N2CCC[C@H]2C(=O)N[C@@H](CCCNC(=N)N)C(=O)N[C@@H](CC(N)=O)C(N)=O)C1=O (stereo partly shown) [NMU19] (Ac-C(Succinimide(1-Et,3-yl))FQSPFASQSRGYFLFRPRN-NH2) |  | 
5 | 100 | 2.2 | CCN1C(=O)CC(SC[C@H](NC(C)=O)C(=O)NCCCOCCOCCOCCCNC(=O)CCC(=O)N[C@@H](Cc2ccccc2)C(=O)N[C@@H](CC(C)C)C(=O)N[C@@H](Cc2ccccc2)C(=O)N[C@@H](CCCNC(=N)N)C(=O)N2CCC[C@H]2C(=O)N[C@@H](CCCNC(=N)N)C(=O)N[C@@H](CC(N)=O)C(N)=O)C1=O (stereo partly shown) [NMU15, Ac-C1-Ttds-FLFRPRN-CONH2] ({X2-Suc}-FLFRPRN-NH2) |  | 
6 |  | 4.5 | Ac-C2FRVDEEFQSPFASQSRGYFLFRPRN-CONH2 [NMU9] ({Ac-C(PEG 40 kDa)}-FRVDEEFQSPFASQSRGYFLFRPRN-NH2) [C2 = Cys(PEG)240 kDa from Nektar (mPEG2-MAL-40 k)] |  | 
7 |  |  | H-FRVDEEFQSPFASQSRGYFLFRPRN-NH2 [hNMU-25, reference compound] | 1.6 | % Activity (hNMUR1; Table 9, HEK-hR1, functional): 100%; EC50 (hNMUR1; Table 9, HEK-hR1, functional): 5.5 nM
8 | 100 |  | CCN1C(=O)CC(SC[C@H](NC(C)=O)C(=O)NCC(=O)N[C@@H](Cc2ccc(O)cc2)C(=O)N[C@@H](Cc2ccccc2)C(=O)N[C@@H](CC(C)C)C(=O)N[C@@H](Cc2ccccc2)C(=O)N[C@@H](CCCNC(=N)N)C(=O)N2CCC[C@H]2C(=O)N[C@@H](CCCNC(=N)N)C(=O)N[C@@H](CC(N)=O)C(N)=O)C1=O (stereo partly shown) [NMU6] (Ac-C(Succinimide(1-Et,3-yl))GYFLFRPRN-NH2) |  | 
9 |  | 16.9 | Ac-C2FQSPFASQSRGYFLFRPRN-CONH2 ({Ac-C(PEG 40 kDa)}-FQSPFASQSRGYFLFRPRN-NH2; not fully specified; printed as Ac-C2FQSPFASQSRGYFLFRPRN-CONH2) [NMU20, C2 = Cys(PEG)240 kDa] |  | 

Row | Compound | % Activity (rat NMUR2; [2]) [%] | EC50 (rat NMUR2; rat NMUR2) [nM] | IC50 (rat NMUR2) [nM] | further results
10 | CCN1C(=O)CC(SC[C@H](NC(C)=O)C(=O)N[C@@H](Cc2ccccc2)C(=O)N[C@@H](CCCNC(=N)N)C(=O)N[C@H](C(=O)N[C@@H](CC(=O)O)C(=O)N[C@@H](CCC(=O)O)C(=O)N[C@@H](CCC(=O)O)C(=O)N[C@@H](Cc2ccccc2)C(=O)N[C@@H](CCC(N)=O)C(=O)N[C@@H](CO)C(=O)N2CCC[C@H]2C(=O)N[C@@H](Cc2ccccc2)C(=O)N[C@@H](C)C(=O)N[C@@H](CO)C(=O)N[C@@H](CCC(N)=O)C(=O)N[C@@H](CO)C(=O)N[C@@H](CCCNC(=N)N)C(=O)NCC(=O)N[C@@H](Cc2ccc(O)cc2)C(=O)N[C@@H](Cc2ccccc2)C(=O)N[C@H](C)C(=O)N[C@@H](Cc2c[nH]c3ccccc23)C(=O)N[C@@H](CCCNC(=N)N)C(=O)N2CCC[C@H]2C(=O)N[C@@H](CCCNC(=N)N)C(=O)N[C@@H](CC(N)=O)C(N)=O)C(C)C)C1=O (stereo partly shown) [NMU13] (Ac-C(Succinimide(1-Et,3-yl))FRVDEEFQSPFASQSRGYF[dA]WRPRN-NH2) | 0.0 | > 1000 | > 1000 | % Activity (rat NMUR2; [1]): 24%
